Reference: patent US20150368248A1, “2-SUBSTITUTED-6-BIARYLMETHYLAMINO-9-CYCLOPENTYL-9H-PURINE DERIVATIVES, USE THEREOF AS MEDICAMENTS, AND PHARMACEUTICAL COMPOSITIONS” (UNIVERZITA PALACKEHO V OLOMOUCI, priority 2013, published 2015)

Tests used:
HepG2 and PLC cells = assay: Clonogenic survival assay; assay type: cell-based, human; settings: 0.2 μM
Protocol: To analyze the clonogenic growth behavior of cell populations on tissue culture plastic, 500 cells were seeded in a 6-well plate and, either untreated or pretreated with BA-12 or BP-14 for 24 hours, incubated with standard medium for 10 days at 37° C. and 5% CO2. Colonies were fixed with methanol/acetic acid (3:1) and stained with 0.25% crystal violet. The crystal violet of fixed cells was solubilized with 1% SDS and the absorbance was photometrically determined at 560 nm.

[1] = tested on: HepG2, PLC and Hep3B cells; assay: Analysis of proliferation (cell counter); assay type: cell-based, human; settings: 0.2 μM
Protocol: 6×10^4 cells were seeded on 12-well plates and incubated with inhibitors at different concentrations for 3 days. Cell numbers were determined at various time points after trypsinization using a cell counter (CASY, Scharfe Systems, Reutlingen, Germany). Three independent experiments were performed in triplicates.

[2] = tested on: HepG2- and PLC-derived tumors; assay: Xenografted tumor formation and drug intervention; assay type: in vivo
Protocol: (§1) BrdU incorporation into cell nuclei directly indicates cell proliferation. Cultured cells were grown in medium containing 10 μM 5-bromo-2′-deoxy-uridine (BrdU) for 1 hour. After removing labeling medium, cells were fixed and DNA denatured with a fixing/denaturing solution containing 2 M HCl for 30 minutes at 37° C. To analyze BrdU incorporation in vivo, 200 μl Ringer solution containing 1 mg BrdU was intraperitoneally injected into xenografted mice 2 hours prior to analysis. Mice were sacrificed and tumor tissue was fixed in 4% formaldehyde and processed for immunohistochemistry. The incorporation of BrdU into cellular DNA was detected using a monoclonal anti-BrdU antibody (Sigma, St. Louis, USA) followed by incubation with a peroxidase-conjugated secondary antibodies (Calbiochem, LaJolla, USA) at dilutions of 1:10,000.
(§2) 5×10^6 human hepatoma cells were re-suspended in 100 μl Ringer solution and subcutaneously injected into severe combined immunodeficient (SCID) mice (Harlan Laboratories, San Pietro, Italy). Tumor volume was determined as described (36). Pharmacological intervention was performed in tumor-bearing mice for 17 days by daily intraperitoneal injection of either 5 mg/kg BA-12 or 1 mg/kg BP-14 in 100 μl of 0.01% DMSO. Control tumor-bearing mice were daily intraperitoneally injected with 100 μl of 0.01% DMSO only. All animal experiments were performed according to the Austrian guidelines for animal care and protection.
(§3) Mice were sacrificed and tumors were fixed as described (37). 4 μm thick, paraffin-embedded sections were stained with hematoxylin and eosin (H&E). For immunohistochemistry, sections were stained with anti-BrdU (Sigma, St. Louis, USA), 1:200. Biotinylated secondary antibodies were used at 1:200. The immunoperoxidase procedure was performed using a Vectastain Elite ABC kit (Vector Laboratories, CA, USA) as described by the manufacturer.

[3] = Xenografted tumor formation and drug intervention; assay type: in vivo; settings: SCID, mouse, in vivo, ip; mice, intraperitoneal; read-out: maximum tolerated dose (MTD)
Protocol: as §1, §2, §3

Mcl-1 = assay: Immunoblot analysis of anti-apoptotic protein Mcl-1; assay type: cell-based; settings: Hep3B, PLC/PRF/5 and AKH3p cell lines, 24 hours
Protocol: (§4) Effect of BP14 on cell apoptosis was complemented by immunoblot analysis of selected apoptotic proteins. For immunoblotting, cell were detached with rubber policeman and washed three times with ice-cold PBS and lysed in buffer (50 mM Tris, pH 7.4, 250 mM NaCl, 5 mM EDTA, 50 mM NaF, 1 mM Na3VO4, 1% Nonidet P40) containing mixture of protease and phosphatase inhibitors (Sigma-Aldrich, USA). 20 μg of total proteins were separated by SDS-polyacrylamide gel electrophoresis (SDS-PAGE) and transferred onto nitrocellulose membranes. Membranes were blocked in 5% milk and 0.1% Tween 20 in PBS and probed overnight with specific antibodies for PARP-1 (clone F-2; Santa Cruz Biotechnology, USA), Mcl-1 (S-19; Santa Cruz Biotechnology, USA) and β-actin (C-4, Santa Cruz Biotechnology, USA). All primary antibodies were diluted in PBS containing 5% powdered milk; 0.1% Tween 20. Peroxidase conjugated rabbit anti-mouse immunoglobulin or porcine anti-rabbit immunoglobulin antisera (DAKO, Denmark) were used as the secondary antibodies and visualised with ECL reagents (Amersham-Pharmacia, Little Chalfont, UK).

[4] = tested on: RNA polymerase II phosphorylation at serines 2 and 5; assay: Immunoblot of RNA polymerase II phosphorylation (CDK7/CDK9 substrate); assay type: cell-based, human
Protocol: We monitored levels of phosphorylation of RNA polymerase II, which is a substrate of CDK7 and CDK9, in cells treated with compound BP14 (FIG. 3). Immunoblotting analysis was performed as described in Example 33 with using appropriate antibodies for anti-phospho RNA polymerase II (S5) (Bethyl Laboratories, USA), anti-phospho RNA polymerase II (S2) (Bethyl Laboratories, USA), anti-RNA polymerase II (clone ARNA-3, Millipore) and β-actin (clone C4, Santa Cruz Biotechnology, USA).
(§5) Immunoblotting was performed as described previously (36). The primary antibodies were used at the dilutions: anti-phospho-Ser5 RNA Pol II (CDK7; Bethyl Laboratories, Montgomery, USA), 1:1,000; anti-phospho-Ser2 RNA Pol II (CDK9; Bethyl Laboratories, Montgomery, USA), 1:1,000; anti-RNA Pol II (Santa Cruz Biotechnology, Santa Cruz, USA), 1:1,000; anti-PARP (Cell Signaling Technology, Beverly, USA), 1:1,000; anti-β-actin (Sigma, St. Louis, USA), 1:2.500. Horseradish peroxidase-conjugated secondary antibodies (Calbiochem, LaJolla, USA) were used at dilutions of 1:10,000.

PARP-1 = assay: Immunoblot analysis of PARP cleavage; assay type: cell-based, human
Protocol: as §4, §5

NC1CCC(Nc2nc(NCc3ccc(-c4ccco4)nc3)c3ncn(C4CCCC4)c3n2)CC1 (stereo not shown) [BP14, N^2-(4-amino-cyclohexyl)-9-cyclopentyl-N^6-(6-furan-2-yl-pyridin-3-ylmethyl)-9H-purine-2,6-diamine]
reduction of clonogenic growth behavior (HepG2 and PLC cells): more than 15 fold | proliferation kinetics [1]: cytostatic effect | decrease of S-phase-positive cells by BrdU incorporation in tumors ([2]; HepG2- and PLC-derived tumors): 2 fold | tumor volumes of xenografts ([2]; HepG2 and PLC xenografts, 1 mg/kg daily i.p., 17 days): strongly reduced tumor volumes | PLC tumors ([2]; PLC xenograft, 1 mg/kg daily i.p., 17 days): regression of PLC tumors | MTD at 17 days [3]: 1 mg/kg | level of anti-apoptotic protein Mcl-1 (Mcl-1): large dose-dependent decrease | RNA polymerase II phosphorylation on serine 5 (CDK7) and serine 2 (CDK9) ([4]; HepG2 and PLC cells, below 1 μM, 24 hours): strong reduction of RNA polymerase II phosphorylation | phosphorylation at serines 2 and 5 of RNA polymerase II ([4]; mainly AKH3sp and Hep3B cell lines, 24 h): rapid decrease in phosphorylation at serines 2 and 5 of RNA polymerase II | cleavage of PARP and p53 expression (PARP-1; 0.2 μM, HepG2 and p53-mutated PLC cells): induced cleavage of PARP and p53 expression | protein level of PARP-1 (PARP-1; HUH-7 cells, concentration up to 3xIC50): no effect | caspase-3-cleaved PARP-1 fragment at 89 kDa (PARP-1; Hep3B and AHK3p cells, 24 hours): markedly observed | PARP processing in PHHs (PARP-1; primary human hepatocytes): failed to induce PARP processing
